# Source: patent US11725000B2, “Apoptosis inhibitors” (National Institute of Biological Sciences, Beijing, priority 2017, dated 2023)
# System: U2OS_Bim cells
# Experiment: Apoptosis inhibition assay (Bim-induced apoptosis, cell viability by ATP level)
# Assay type: cell-based
# Conditions: U2OS_Bim cells; means of duplicates; numbering of Tables 4a/4b; read-out: EC50
# Outline: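 Apoptosis was triggered by doxycycline (0.1 μg/mL) induction of Bim, one hour after compound addition to U2OS_Bim cells. Survival was measured after 24 h from cellular ATP (CellTiter-Glo), relative to DMSO, with zVAD at 20 μM as rescue control. Data are duplicate means, some estimated from preliminary results.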
row,EC50 [nM],Structure (SMILES)
1,1 to 1000,COCCS(=O)(=O)c1nc(-c2ccc(=O)n(Cc3ccc(OC)c(OC)c3)c2)cc(C(F)(F)F)n1 [Compound 143]
2,1 to 1000,COCCOCCS(=O)(=O)c1nc(-c2ccc(=O)n(Cc3ccc(OC)c(OC)c3)c2)cc(C(F)(F)F)n1 [Compound 145]
3,1 to 1000,"COc1ccc(Cn2cc(-c3cc(C(F)(F)F)nc(S(=O)(=O)CCC(=O)N(C)C)n3)ccc2=O)cc1OC [Compound 149, 3-((4-(1-(3,4-dimethoxybenzyl)-6-oxo-1,6-dihydropyridin-3-yl)-6-(trifluoromethyl)pyrimidin-2-yl)sulfonyl)-N,N-dimethylpropanamide]"
4,1 to 1000,"COc1ccc(Cn2cc(-c3cc(C(F)(F)F)nc(S(=O)(=O)CCC(=O)N4CCCC4)n3)ccc2=O)cc1OC [Compound 150, 1-(3,4-dimethoxybenzyl)-5-(2-((3-oxo-3-(pyrrolidin-1-yl)propyl)sulfonyl)-6-(trifluoromethyl)pyrimidin-4-yl)pyridin-2 (1H)-one]"
5,1 to 1000,"COc1ccc(Cn2cc(-c3cc(C(F)(F)F)nc(S(=O)(=O)CCCC(=O)N4CCCC4)n3)ccc2=O)cc1OC [Compound 152, 1-(3,4-dimethoxybenzyl)-5-(2-((4-oxo-4-(pyrrolidin-1-yl)butyl)sulfonyl)-6-(trifluoromethyl)pyrimidin-4-yl)pyridin-2 (1H)-one]"
6,1 to 1000,"COc1ccc(Cn2cc(-c3cc(C(F)(F)F)nc(S(=O)(=O)CCC(=O)N4CCCCC4)n3)ccc2=O)cc1OC [Compound 153, 1-(3,4-dimethoxybenzyl)-5-(2-((3-oxo-3-(piperidin-1-yl)propyl)sulfonyl)-6-(trifluoromethyl)pyrimidin-4-yl)pyridin-2 (1H)-one]"
7,1 to 1000,"COc1cc(Cl)c(Cn2cc(-c3cc(C(F)(F)F)nc(S(=O)(=O)CCC(=O)N4CCCCC4)n3)ccc2=O)cc1OC [Compound 154, 1-(2-chloro-4,5-dimethoxybenzyl)-5-(2-((3-oxo-3-(piperidin-1-yl)propyl)sulfonyl)-6-(trifluoromethyl)pyrimidin-4-yl)pyridin-2 (1H)-one]"
8,1 to 1000,"COc1ccc(Cn2cc(-c3cc(C(F)(F)F)nc(S(=O)(=O)CCCC(=O)N4CCOCC4)n3)ccc2=O)cc1OC [Compound 156, 1-(3,4-dimethoxybenzyl)-5-(2-((4-morpholino-4-oxobutyl)sulfonyl)-6-(trifluoromethyl)pyrimidin-4-yl)pyridin-2 (1H)-one]"
9,1 to 1000,"COc1ccc(Cn2cc(-c3cc(C(F)F)nc(S(C)(=O)=O)n3)ccc2=O)cc1OC [Compound 160, 5-(6-(difluoromethyl)-2-(methylsulfonyl)pyrimidin-4-yl)-1-(3,4-dimethoxybenzyl)pyridin-2 (1H)-one]"
10,1 to 1000,"COc1ccc(Cn2cc(-c3cc(CF)nc(S(C)(=O)=O)n3)ccc2=O)cc1OC [Compound 161, 5-(6-(fluoromethyl)-2-(methylsulfonyl)pyrimidin-4-yl)-1-(3,4-dimethoxybenzyl)pyridin-2 (1H)-one]"
11,1 to 1000,"COc1ccc(Cn2cc(-c3cc(C(C)(F)F)nc(S(C)(=O)=O)n3)ccc2=O)cc1OC [Compound 164, 5-(6-(1,1-difluoroethyl)-2-(methylsulfonyl)pyrimidin-4-yl)-1-(3,4-dimethoxybenzyl)pyridin-2 (1H)-one]"
12,1 to 1000,"COc1ccc(Cn2cc(-c3cc(C(F)F)nc(S(C)(=O)=O)n3)ccc2=O)cc1F [Compound 167, 5-(6-(difluoromethyl)-2-(methylsulfonyl)pyrimidin-4-yl)-1-(3-fluoro-4-methoxybenzyl)pyridin-2 (11H)-one]"
13,1 to 1000,"COc1ccc(Cn2cc(-c3cc(C(F)F)nc([S+](C)[O-])n3)ccc2=O)cc1F (stereo not drawn) [Compound 168, 5-(6-(difluoromethyl)-2-(methylsulfinyl)pyrimidin-4-yl)-1-(3-fluoro-4-methoxybenzyl)pyridin-2 (1H)-one]"
14,1 to 1000,"COc1ccc(Cn2cc(-c3cc(C(F)F)nc(S(C)(=O)=O)n3)ccc2=O)cc1C(F)(F)F [Compound 169, 5-(6-(difluoromethyl)-2-(methylsulfonyl)pyrimidin-4-yl)-1-(4-methoxy-3-(trifluoromethyl)benzyl)pyridin-2 (1H)-one]"
15,1 to 1000,"COc1ccc(Cn2cc(-c3cc(C(F)F)nc([S+](C)[O-])n3)ccc2=O)cc1C(F)(F)F (stereo not drawn) [Compound 170, 5-(6-(difluoromethyl)-2-(methylsulfinyl)pyrimidin-4-yl)-1-(4-methoxy-3-(trifluoromethyl)benzyl)pyridin-2 (1H)-one]"

# Further lines, the compound ahead of its results:
row,Structure (SMILES),EC50 [nM]
1,"C[S+]([O-])c1nc(-c2ccc(=O)n(Cc3ccc4c(c3Br)OCO4)c2)cc(C(F)(F)F)n1 (stereo not drawn) [Compound 138, 1-((4-bromobenzo[d][1,3]dioxol-5-yl)methyl)-5-(2-(methylsulfinyl)-6-(trifluoromethyl)pyrimidin-4-yl)pyridin-2 (1H)-one]",1 to 1000
2,"COc1ccc(Cn2cc(-c3cc(-n4cccn4)nc(S(C)(=O)=O)n3)ccc2=O)cc1OC [Compound 139, 1-(3,4-dimethoxybenzyl)-5-(2-(methylsulfonyl)-6-(1H-pyrazol-1-yl)pyrimidin-4-yl)pyridin-2 (1H)-one]",1000 to 10000
3,"COc1ccc(Cn2cc(-c3cc(C(F)(F)F)nc(S(=O)(=O)Cc4ccc(-c5ccccc5)cc4)n3)ccc2=O)cc1OC [Compound 140, 5-(2-(([1,1′-biphenyl]-4-ylmethyl)sulfonyl)-6-(trifluoromethyl)pyrimidin-4-yl)-1-(3,4-dimethoxybenzyl)pyridin-2 (1H)-one]",1 to 1000
4,"C#CCCS(=O)(=O)c1nc(-c2ccc(=O)n(Cc3ccc(OC)c(OC)c3)c2)cc(C(F)(F)F)n1 [Compound 141, 5-(2-(but-3-yn-1-ylsulfonyl)-6-(trifluoromethyl)pyrimidin-4-yl)-1-(3,4-dimethoxybenzyl)pyridin-2 (1H)-one]",1 to 1000
5,"C=CS(=O)(=O)c1nc(-c2ccc(=O)n(Cc3ccc(OC)c(OC)c3)c2)cc(C(F)(F)F)n1 [Compound 142, 1-(3,4-dimethoxybenzyl)-5-(6-(trifluoromethyl)-2-(vinylsulfonyl)pyrimidin-4-yl)pyridin-2 (1H)-one]",1000 to 10000
6,"COCCCS(=O)(=O)c1nc(-c2ccc(=O)n(Cc3ccc(OC)c(OC)c3)c2)cc(C(F)(F)F)n1 [Compound 144, 1-(3,4-dimethoxybenzyl)-5-(2-((3-methoxypropyl)sulfonyl)-6-(trifluoromethyl)pyrimidin-4-yl)pyridin-2 (1H)-one]",1 to 1000
7,"CCCCCCCS(=O)(=O)c1nc(-c2ccc(=O)n(Cc3ccc(OC)c(OC)c3)c2)cc(C(F)(F)F)n1 [Compound 146, 1-(3,4-dimethoxybenzyl)-5-(2-(heptylsulfonyl)-6-(trifluoromethyl)pyrimidin-4-yl)pyridin-2 (1H)-one]",1 to 1000
8,"CCCCCS(=O)(=O)c1nc(-c2ccc(=O)n(Cc3ccc(OC)c(OC)c3)c2)cc(C(F)(F)F)n1 [Compound 147, 1-(3,4-dimethoxybenzyl)-5-(2-(pentylsulfonyl)-6-(trifluoromethyl)pyrimidin-4-yl)pyridin-2 (1H)-one]",1 to 1000
9,"COc1ccc(Cn2cc(-c3cc(C(F)(F)F)nc(S(=O)(=O)CCCC(=O)N(C)C)n3)ccc2=O)cc1OC [Compound 151, 4-((4-(1-(3,4-dimethoxybenzyl)-6-oxo-1,6-dihydropyridin-3-yl)-6-(trifluoromethyl)pyrimidin-2-yl)sulfonyl)-N,N-dimethylbutanamide]",1 to 1000
10,"COc1ccc(Cn2cc(-c3cc(C(F)(F)F)nc(S(=O)(=O)CCCC(=O)N4CCCCC4)n3)ccc2=O)cc1OC [Compound 155, 1-(3,4-dimethoxybenzyl)-5-(2-((4-oxo-4-(piperidin-1-yl)butyl)sulfonyl)-6-(trifluoromethyl)pyrimidin-4-yl)pyridin-2 (1H)-one]",1 to 1000
11,"COc1cc(Cl)c(Cn2cc(-c3cc(C(F)(F)F)nc(S(=O)(=O)CCCC(=O)N4CCOCC4)n3)ccc2=O)cc1OC [Compound 157, 1-(2-chloro-4,5-dimethoxybenzyl)-5-(2-((4-morpholino-4-oxobutyl)sulfonyl)-6-(trifluoromethyl)pyrimidin-4-yl)pyridin-2 (1H)-one]",1 to 1000
12,"COc1ccc(Cn2cc(-c3cc(C(F)(F)F)nc(S(=O)(=O)CCCC(N)=O)n3)ccc2=O)cc1OC [Compound 158, 4-((4-(1-(3,4-dimethoxybenzyl)-6-oxo-1,6-dihydropyridin-3-yl)-6-(trifluoromethyl)pyrimidin-2-yl)sulfonyl)butanamide]",< 100000
13,"COc1ccc(Cn2cc(-c3cc(C(F)(F)F)nc([S+]([O-])CCCC(N)=O)n3)ccc2=O)cc1OC (stereo not drawn) [Compound 159, 4-((4-(1-(3,4-dimethoxybenzyl)-6-oxo-1,6-dihydropyridin-3-yl)-6-(trifluoromethyl)pyrimidin-2-yl)sulfinyl)butanamide]",< 100000
14,"COc1ccc(Cn2cc(-c3nc(S(C)(=O)=O)nc(C(F)(F)F)c3Cl)ccc2=O)cc1OC [Compound 162, 5-(5-chloro-2-(methylsulfonyl)-6-(trifluoromethyl)pyrimidin-4-yl)-1-(3,4-dimethoxybenzyl)pyridin-2 (1H)-one]",1 to 1000
15,"COc1ccc(Cn2cc(-c3cc(C(C)=O)nc(S(C)(=O)=O)n3)ccc2=O)cc1OC [Compound 163, 5-(6-acetyl-2-(methylsulfonyl)pyrimidin-4-yl)-1-(3,4-dimethoxybenzyl)pyridin-2 (1H)-one]",1 to 1000
16,"COc1ccc(Cn2cc(-c3cc(C(F)F)nc(S(C)(=O)=O)n3)cc(F)c2=O)cc1OC [Compound 165, 5-(6-(difluoromethyl)-2-(methylsulfonyl)pyrimidin-4-yl)-1-(3,4-dimethoxybenzyl)-3-fluoropyridin-2 (1H)-one]",1 to 1000
17,"COc1ccc(Cn2cc(-c3cc(C)nc(S(=O)(=O)CC(F)(F)F)n3)ccc2=O)cc1OC [Compound 166, 1-(3,4-dimethoxybenzyl)-5-(6-methyl-2-((2,2,2-trifluoroethyl)sulfonyl)pyrimidin-4-yl)pyridin-2 (1H)-one]",1000 to 10000
18,"COc1cc(Cn2cc(-c3cc(C(F)F)nc(SC)n3)ccc2=O)cc(F)c1OC [Compound 171, 5-(6-(difluoromethyl)-2-(methylthio)pyrimidin-4-yl)-1-(3-fluoro-4,5-dimethoxybenzyl)pyridin-2 (1H)-one]",1 to 1000
